Data on 38 molecules can be found in patent US9938301B2, “Dihydropyrimido fused ring derivative as HBV inhibitor” (QILU PHARMACEUTICAL CO., LTD., priority 2014, dated 2018).

Read-outs that look alike come from different tables or passages of the source.

This assay deals with HBV DNA in HepG2.2.15 cells. The experiment in a line: HBV in vitro dot-blot hybridization test. Type of assay: cell-based, Hepatitis B virus. The settings on record: Hepatitis B virus. On the procedure:
• 1. Purpose of the test: • The content of HBV DNA in HepG2.2.15 cells was detected by dot-blot hybridization test to evaluate an inhibitory action of the compound on HBV with an EC50 value as an indicator. • 2. Experimental materials: • 2.1 Cell lines: HepG2.2.15 Cells • HepG2.2.15 cell culture media (DMEM/F12, Invitrogen-11330057; 10% serum Invitrogen-10099141; 100 units/mL Penicillin and 10 μg/mL Streptomycin, Invitrogen-15140122; 1% non-essential amino acid, Invitrogen-11140076; 2 mM L-GLUTAMINE, Invitrogen-25030081; 300 µg/ml Geneticin, Invitrogen-10131027 • 2.2 Reagents: • Trypsin (I Invitrogen-25300062) • DPBS (Hyclone-SH30028.01B) • DMSO (Sigma-D2650-100ML) • 96-well cell-culture plate (Corning-3599) • CO2 incubator (HERA-CELL-240) • 20×SSC (Bio-serve Co. Ltd) • Tris-HCl (Aldirch-154563-1KG) • NaOH (Sinopharm 10019718) • NaCl (Sinopharm 10019308) • Hybridization solution (Major BioTech Co. Ltd, IMMUNE GOLD-HYB-500) • DIG Wash and Block Buffer set (Roche-11585762001) • Anti-digoxigenin-AP, Fab fragments from sheep (Roche-11093274910) • 2.3 Materials and Instruments: • Positively-Charged Nylon Membrane (GE-RPN2250B) • Transfer Membrane Instrument (Bio-Rad, 170-6545) • Hybridization Oven (HL-2000 Hybrilinker) • 3. Testing steps and Methods: • 3.1 HepG2.2.15 cells (4×10^4 cells/well) were planted into a 96-well plate, and at 37° C., 5% CO2 cultured overnight. • 3.2 On Day 2, the compounds were diluted in totally 6 concentrations with a dilution gradient of five times. The compounds at different concentrations were added into the culture wells in duplicate. The final concentration of DMSO in the culture media was 1%. 1 μM GLS4 was used as 100% inhibition control; 1% DMSO as 0% inhibition control. • 3.3 On Day 5, replacing with the fresh culture media containing the compound was performed. • 3.4 On Day 8 and Day 9, the culture media in the culture wells was removed, and the cells were harvested for dot-blot hybridization. • The lysate was added into a culture well, and at 37° C. incubating for half an hour to disintegrate cells; the supernatant was obtained by centrifugation and transferred into a new microplate; a denaturation solution was added, after sufficient mixing the denatured sample was transferred and imprinted onto a Nylon membrane, the nucleic acid was fixed onto the membrane by UV cross-linking. • Pre-hybridization: the membrane was incubated at 60° C. in a hybridization solution for 1 hour. • Hybridization: heating the denatured digoxin-labelled HBV DNA probe and incubating at 60° C. overnight. • Membrane Washing: performing high strigency washing twice, low strigency washing for 3 times. • Blocking: incubating the membrane at room temperature in a blocking solution for 30-60 minutes. • Hybridization: diluting the Antibody Solution with the blocking solution, in which the membrane was placed and incubated at room temperature for 30-60 minutes. • Developing: washing the membrane in a Detection Buffer for 5 minutes, followed by adding a developing solution, pressing and exposing. • The photos was saved in tiff format, and a gray value of the dot was quantified with quantity one software. • 3.5 Data Analysis: • 3.5.1 The inhibition percentage was calculated: % Inh.=[1−(sample dot gray value−1 μM GLS4 dot gray value 1)/(DMSO control dot gray value−1 μM GLS4 dot gray value 1)]×100. • 3.5.2 Calculating EC50: the concentration of the compound for 50% inhibition of HBV (EC50) was calculated by using GraphPad Prism Software. • 4.

Where [1] appears, read: HepG2.2.15, dot-blot hybridization assay, read-out: Concentration for 50% inhibition of HBV (EC50)value.
[2] abbreviates: HepG2.2.15, summary list of target compounds, Examples 1-165 (same as Table 2), read-out: BIOACTIVITY (inhibitory actions on HBV DNA, EC50).

As to `CCOC(=O)C1=C2C[C@H](NC(=O)OC)CN2C(c2nccs2)=N[C@H]1c1ccc(F)cc1Br` [Example 44], the EC50 under setting [1] was below 100 nM and the EC50 under setting [2] is below 100 nM.
Turning to `CCOC(=O)C1=C2CC(NC(=O)OC(C)C)CN2C(c2nccs2)=N[C@H]1c1ccc(F)cc1Br` (stereo partly shown) [Example 46], the EC50 is, setting by setting: under setting [1], 100 to 500 nM; under setting [2], 100 to 500 nM.
`CCOC(=O)C1=C2C[C@H](NC(=O)OC(C)C)CN2C(c2nccs2)=N[C@H]1c1ccc(F)cc1Br` [Example 47]: the EC50 under setting [1] was below 100 nM and the EC50 under setting [2] is below 100 nM.
In the case of `CCOC(=O)C1=C2C[C@@H](NC(C)=O)CN2C(c2nccs2)=N[C@H]1c1ccc(F)cc1Br` [Example 49], the EC50 runs as follows: under setting [1], 100 to 500 nM; under setting [2], 100 to 500 nM.
As for `CCOC(=O)C1=C2C[C@H](NC(C)=O)CN2C(c2nccs2)=N[C@H]1c1ccc(F)cc1Br` [Example 50], the EC50 lay in the range of 1000 to 5000 nM under setting [1] and 1000 to 5000 nM under setting [2].
As to `CCOC(=O)C1=C2CC(NC(=O)NC)CN2C(c2nccs2)=N[C@H]1c1ccc(F)cc1Br` (stereo partly shown) [Example 52], the EC50 reads like this: under setting [1], 500 to 1000 nM; under setting [2], 500 to 1000 nM.
In the case of `CCOC(=O)C1=C2C[C@H](NC(=O)NC)CN2C(c2nccs2)=N[C@H]1c1ccc(F)cc1Br` [Example 53], the EC50 is below 100 nM under setting [1] and below 100 nM under setting [2].
Turning to `CCOC(=O)C1=C2C[C@@H](NS(=O)(=O)NC)CN2C(c2nccs2)=N[C@H]1c1ccc(F)cc1Br` [Example 55], the EC50 reads like this: under setting [1], below 100 nM; under setting [2], below 100 nM.
`CCOC(=O)C1=C2C[C@H](N(C)S(=O)(=O)NC)CN2C(c2nccs2)=N[C@H]1c1ccc(F)cc1Br` [Example 56]: the EC50 is, setting by setting: under setting [1], below 100 nM; under setting [2], below 100 nM.
`CCOC(=O)C1=C2CC(NS(C)(=O)=O)CN2C(c2nccs2)=N[C@H]1c1ccc(F)cc1Br` (stereo partly shown) [Example 58]: the EC50 is below 100 nM under setting [1] and below 100 nM under setting [2].
`CCOC(=O)C1=C2C[C@H](NS(C)(=O)=O)CN2C(c2nccs2)=N[C@H]1c1ccc(F)cc1Br` [Example 59]: the EC50 reads like this: under setting [1], below 100 nM; under setting [2], below 100 nM.
With `CCOC(=O)C1=C2CC(NS(=O)(=O)C3CC3)CN2C(c2nccs2)=N[C@H]1c1ccc(F)cc1Br` (stereo partly shown) [Example 61], the EC50 runs as follows: under setting [1], below 100 nM; under setting [2], below 100 nM.
Consider `CCOC(=O)C1=C2C[C@H](NS(=O)(=O)C3CC3)CN2C(c2nccs2)=N[C@H]1c1ccc(F)cc1Br` [Example 62], for which the EC50 by setting is: under setting [1], below 100 nM; under setting [2], below 100 nM.
Take `CCOC(=O)C1=C2CC(NS(=O)(=O)C(F)(F)F)CN2C(c2nccs2)=N[C@H]1c1ccc(F)cc1Br` (stereo partly shown) [Example 63]: the EC50 lay in the range of 100 to 500 nM under setting [1] and 100 to 500 nM under setting [2].
Regarding `CCOC(=O)C1=C2C[C@H](NS(=O)(=O)C(F)(F)F)CN2C(c2nccs2)=N[C@H]1c1ccc(F)cc1Br` [Example 64], the EC50 under setting [1] fell in the range of 100 to 500 nM and the EC50 under setting [2] was 100 to 500 nM.
On to `CCOC(=O)C1=C2C[C@@H](N3CCOC3=O)CN2C(c2nccs2)=N[C@H]1c1ccc(F)cc1Br` [Example 65], for which the EC50 is 100 to 500 nM under setting [1] and 100 to 500 nM under setting [2].
As for `CCOC(=O)C1=C2C[C@H](N3CCOC3=O)CN2C(c2nccs2)=N[C@H]1c1ccc(F)cc1Br` [Example 66], the EC50 is, setting by setting: under setting [1], 100 to 500 nM; under setting [2], 100 to 500 nM.
In the case of `CCOC(=O)C1=C2CN(C(=O)OCC)CCN2C(c2nccs2)=NC1c1ccc(F)cc1Br` (stereo not shown) [Example 82], the EC50 reads like this: under setting [1], 100 to 500 nM; under setting [2], 100 to 500 nM.
Turning to `CCOC(=O)C1=C2CN(S(=O)(=O)NC)CCN2C(c2nccs2)=N[C@H]1c1ccc(F)cc1Br` [Example 84], the EC50 by setting is: under setting [1], 100 to 500 nM; under setting [2], 100 to 500 nM.
With `CCOC(=O)C1=C2CN(C(=O)OC)CCN2C(c2nccs2)=N[C@H]1c1ccc(F)cc1Br` [Example 85], the EC50 is, setting by setting: under setting [1], 100 to 500 nM; under setting [2], 100 to 500 nM.
As for `CCOC(=O)C1=C2CN(C(=O)NC)CCN2C(c2nccs2)=N[C@H]1c1ccc(F)cc1Br` [Example 88], the EC50 by setting is: under setting [1], 500 to 1000 nM; under setting [2], 500 to 1000 nM.
With `CCOC(=O)C1=C2CN(C(=O)CN)CCN2C(c2nccs2)=N[C@H]1c1ccc(F)cc1Br` [Example 89], the EC50 runs as follows: under setting [1], 1000 to 5000 nM; under setting [2], 1000 to 5000 nM.
For `CCOC(=O)C1=C2CN(C(=O)C3(C)COC3)CCN2C(c2nccs2)=N[C@H]1c1ccc(F)cc1Br` [Example 90], the EC50 under setting [1] was in the range of 100 to 500 nM and the EC50 under setting [2] lay in the range of 100 to 500 nM.
`CCOC(=O)C1=C2CN(C(=O)C3CC3)CCN2C(c2nccs2)=N[C@H]1c1ccc(F)cc1Br` [Example 91]: the EC50 is, setting by setting: under setting [1], 100 to 500 nM; under setting [2], 100 to 500 nM.
Turning to `CCOC(=O)C1=C2CN(C(=O)C(C)C)CCN2C(c2nccs2)=N[C@H]1c1ccc(F)cc1Br` [Example 92], the EC50 runs as follows: under setting [1], below 100 nM; under setting [2], below 100 nM.
For the molecule `CCOC(=O)C1=C2CN(S(=O)(=O)C3CC3)CCN2C(c2nccs2)=N[C@H]1c1ccc(F)cc1Br` [Example 93], the EC50 runs as follows: under setting [1], 100 to 500 nM; under setting [2], 100 to 500 nM.
For `CCOC(=O)C1=C2CN(Cc3cc(C)on3)CCN2C(c2nccs2)=N[C@H]1c1ccc(F)cc1Br` [Example 94], the EC50 reads like this: under setting [1], 1000 to 5000 nM; under setting [2], 1000 to 5000 nM.
On to `CCOC(=O)C1=C2CN(CC(=O)OC)CCN2C(c2nccs2)=N[C@H]1c1ccc(F)cc1Br` [Example 98], for which the EC50 runs as follows: under setting [1], 1000 to 5000 nM; under setting [2], 1000 to 5000 nM.
As to `CCOC(=O)C1=C2CN(CC(=O)O)CCN2C(c2nccs2)=N[C@H]1c1ccc(F)cc1Br` [Example 99], the EC50 was 1000 to 5000 nM under setting [1] and 1000 to 5000 nM under setting [2].
Consider `CCOC(=O)C1=C2CN(Cc3cocn3)CCN2C(c2nccs2)=NC1c1ccc(F)cc1Br` (stereo not shown) [Example 100], for which the EC50 under setting [1] fell in the range of 1000 to 5000 nM and the EC50 under setting [2] is 1000 to 5000 nM.
On to `CCOC(=O)C1=C2CN(C#N)CCN2C(c2nccs2)=N[C@H]1c1ccc(F)cc1Br` [Example 101], for which the EC50 is, setting by setting: under setting [1], 500 to 1000 nM; under setting [2], 500 to 1000 nM.
For `CCOC(=O)C1=C2CN(C3COC3)CCN2C(c2nccs2)=N[C@H]1c1ccc(F)cc1Br` [Example 102], the EC50 under setting [1] is 500 to 1000 nM and the EC50 under setting [2] lay within 500 to 1000 nM.
For the molecule `CCNC(=S)N1CCN2C(c3nccs3)=N[C@@H](c3ccc(F)cc3Br)C(C(=O)OCC)=C2C1` [Example 103], the EC50 was in the range of 100 to 500 nM under setting [1] and 100 to 500 nM under setting [2].
For the molecule `CCOC(=O)C1=C2CN(CC(=O)OC)C(=O)CN2C(c2nccs2)=N[C@H]1c1ccc(F)cc1Br` [Example 106], the EC50 is 1000 to 5000 nM under setting [1] and 1000 to 5000 nM under setting [2].
Take `CCOC(=O)C1=C2C[C@@H](CS(C)(=O)=O)CN2C(c2nccs2)=N[C@H]1c1ccc(F)cc1Br` [Example 113]: the EC50 lay within 100 to 500 nM under setting [1] and 100 to 500 nM under setting [2].
Take `CCOC(=O)C1=C2C[C@H](CS(C)(=O)=O)CN2C(c2nccs2)=N[C@H]1c1ccc(F)cc1Br` [Example 114]: the EC50 by setting is: under setting [1], 100 to 500 nM; under setting [2], 100 to 500 nM.
In the case of `CCOC(=O)C1=C2CN(Cc3ccc(OC)cc3)C[C@@H](C(=O)OC)N2C(c2nccs2)=N[C@H]1c1ccc(F)cc1Br` [Example 115], the EC50 was 100 to 500 nM under setting [1] and 100 to 500 nM under setting [2].
Take `CCOC(=O)C1=C2C[C@@H](NS(=O)(=O)C(C)C)CN2C(c2nccs2)=N[C@H]1c1ccc(F)cc1Br` [Example 116]: the EC50 was below 100 nM under setting [1] and below 100 nM under setting [2].
